Assay results reported in ChEMBL document CHEMBL2157994, “Synthesis and in vitro and in vivo anticancer activity of novel 3-methyl-5H-isoxazolo[5',4':5,6]pyrido[2,3-b]indoles” (Bioorg Med Chem Lett, 2012).
Converted amounts (≈) assume the structure as drawn. The source made the active and inactive calls. The rule behind the calls is not given here.

What was measured:
[1] = system: NCI-H460; experiment: Cytotoxicity against human NCI-H460 cells after 48 hrs by MTT assay; type: functional, cell-based; settings: NCI-H460, 48 h
[2] = system: HeLa; experiment: Cytotoxicity against human HeLa cells after 48 hrs by MTT assay; type: functional, cell-based
[3] = system: MCF7; experiment: Cytotoxicity against human MCF7 cells after 48 hrs by MTT assay; type: functional, cell-based; settings: MCF7, 48 h
[4] = Antitumor activity against mouse EAC cells xenografted in Swiss albino mouse assessed as packed cell volume at 10 mg/kg/day, ip administered for 9 days measured on day 14 (reference value: 2.2 +/- 0.26 mL); type: functional, Ehrlich; settings: route intraperitoneal
[5] = Antitumor activity against mouse EAC cells xenografted in Swiss albino mouse assessed as viable tumor cells at 10 mg/kg/day, ip administered for 9 days measured on day 14 by trypan blue exclusion assay (reference value: 7 +/- 0.43 /ml); type: functional, Ehrlich; settings: route intraperitoneal
[6] = Antitumor activity against mouse EAC cells xenografted in Swiss albino mouse assessed as increase in life span at 5 mg/kg/day, ip administered for 9 days relative to vehicle-treated control; type: functional, Ehrlich; settings: route intraperitoneal
[7] = system: Ehrlich; experiment: Anticancer activity against mouse EAC cells xenografted in Swiss albino mouse assessed as decrease in ascitic fluid volume relative to tumor control; type: functional
[8] = Antitumor activity against mouse EAC cells xenografted in Swiss albino mouse assessed as packed cell volume at 5 mg/kg/day, ip administered for 9 days measured on day 14 (reference value: 2.2 +/- 0.26 mL); type: functional, Ehrlich; settings: route intraperitoneal
[9] = Antitumor activity against mouse EAC cells xenografted in Swiss albino mouse assessed as increase in life span at 10 mg/kg/day, ip administered for 9 days relative to vehicle-treated control; type: functional, Ehrlich; settings: route intraperitoneal
[10] = system: Mus musculus; experiment: Hepatoprotective activity in Swiss albino mouse xenografted with mouse EAC cells assessed as SGOT level at 5 mg/kg/day, ip administered for 9 days measured on day 14 (reference value: 112 +/- 1.42 IU/L); type: functional, Ehrlich; settings: route intraperitoneal
[11] = system: Mus musculus; experiment: Hepatoprotective activity in Swiss albino mouse xenografted with mouse EAC cells assessed as total protein level at 5 mg/kg/day, ip administered for 9 days measured on day 14 (reference value: 7.54 +/- 0.14 mg/dL); type: functional, Ehrlich; settings: route intraperitoneal
[12] = Antitumor activity against mouse EAC cells xenografted in Swiss albino mouse assessed as viable tumor cells at 5 mg/kg/day, ip administered for 9 days measured on day 14 by trypan blue exclusion assay (reference value: 7 +/- 0.43 /ml); type: functional, Ehrlich; settings: route intraperitoneal
[13] = system: Mus musculus; experiment: Toxicity in Swiss albino mouse xenografted with mouse EAC cells assessed as RBC level at 5 mg/kg/day, ip administered for 9 days measured on day 14 (reference value: 2.36 +/- 0.13 million/mm3); type: organism-based, Ehrlich; design: route intraperitoneal; settings: in vivo, 216 h
[14] = system: Mus musculus; experiment: Hepatoprotective activity in Swiss albino mouse xenografted with mouse EAC cells assessed as SGPT level at 10 mg/kg/day, ip administered for 9 days measured on day 14 (reference value: 57.84 +/- 0.3 IU/L); type: functional, Ehrlich; settings: route intraperitoneal
[15] = system: Mus musculus; experiment: Toxicity in Swiss albino mouse xenografted with mouse EAC cells assessed as RBC level at 10 mg/kg/day, ip administered for 9 days measured on day 14 (reference value: 2.36 +/- 0.13 million/mm3); type: organism-based, Ehrlich; design: route intraperitoneal; settings: in vivo, 216 h
[16] = Antitumor activity against mouse EAC cells xenografted in Swiss albino mouse assessed as non-viable tumor cells at 10 mg/kg/day, ip administered for 9 days measured on day 14 by trypan blue exclusion assay (reference value: 1.02 +/- 0.09 /ml); type: functional, Ehrlich; settings: route intraperitoneal
[17] = system: Mus musculus; experiment: Hepatoprotective activity in Swiss albino mouse xenografted with mouse EAC cells assessed as SGOT level at 10 mg/kg/day, ip administered for 9 days measured on day 14 (reference value: 112 +/- 1.42 IU/L); type: functional, Ehrlich; settings: route intraperitoneal
[18] = system: Mus musculus; experiment: Toxicity in Swiss albino mouse xenografted with mouse EAC cells assessed as haemoglobin level at 10 mg/kg/day, ip administered for 9 days measured on day 14 (reference value: 5.54 +/- 0.734 g%); type: organism-based, Ehrlich; design: route intraperitoneal; settings: in vivo, 216 h
[19] = system: Mus musculus; experiment: Hepatoprotective activity in Swiss albino mouse xenografted with mouse EAC cells assessed as SGPT level at 5 mg/kg/day, ip administered for 9 days measured on day 14 (reference value: 57.84 +/- 0.3 IU/L); type: functional, Ehrlich; settings: route intraperitoneal
[20] = system: Mus musculus; experiment: Toxicity in Swiss albino mouse xenografted with mouse EAC cells assessed as WBC level at 10 mg/kg/day, ip administered for 9 days measured on day 14 (reference value: 20.66 +/- 0.81 10^3/mm3); type: organism-based, Ehrlich; design: route intraperitoneal; settings: in vivo, 216 h
[21] = system: Mus musculus; experiment: Toxicity in Swiss albino mouse xenografted with mouse EAC cells assessed as body weight at 5 mg/kg/day, ip administered for 9 days measured on day 14 (reference value: 13.57 +/- 0.8 g); type: organism-based, Ehrlich; design: route intraperitoneal; settings: in vivo, 216 h
[22] = system: Mus musculus; experiment: Hepatoprotective activity in Swiss albino mouse xenografted with mouse EAC cells assessed as total protein level at 10 mg/kg/day, ip administered for 9 days measured on day 14 (reference value: 7.54 +/- 0.14 mg/dL); type: functional, Ehrlich; settings: route intraperitoneal
[23] = system: Mus musculus; experiment: Toxicity in Swiss albino mouse xenografted with mouse EAC cells assessed as haemoglobin level at 5 mg/kg/day, ip administered for 9 days measured on day 14 (reference value: 5.54 +/- 0.734 g%); type: organism-based, Ehrlich; design: route intraperitoneal; settings: in vivo, 216 h
[24] = system: Mus musculus; experiment: Toxicity in Swiss albino mouse xenografted with mouse EAC cells assessed as WBC level at 5 mg/kg/day, ip administered for 9 days measured on day 14 (reference value: 20.66 +/- 0.81 10^3/mm3); type: organism-based, Ehrlich; design: route intraperitoneal; settings: in vivo, 216 h
[25] = Antitumor activity against mouse EAC cells xenografted in Swiss albino mouse assessed as tumor volume at 10 mg/kg/day, ip administered for 9 days measured on day 14 (reference value: 3.53 +/- 0.85 mL); type: functional, Ehrlich; settings: route intraperitoneal
[26] = Antitumor activity against mouse EAC cells xenografted in Swiss albino mouse assessed as non-viable tumor cells at 5 mg/kg/day, ip administered for 9 days measured on day 14 by trypan blue exclusion assay (reference value: 1.02 +/- 0.09 /ml); type: functional, Ehrlich; settings: route intraperitoneal
[27] = system: Mus musculus; experiment: Toxicity in Swiss albino mouse xenografted with mouse EAC cells assessed as body weight at 10 mg/kg/day, ip administered for 9 days measured on day 14 (reference value: 13.57 +/- 0.8 g); type: organism-based, Ehrlich; design: route intraperitoneal; settings: in vivo, 216 h
[28] = Antitumor activity against mouse EAC cells xenografted in Swiss albino mouse assessed as tumor volume at 5 mg/kg/day, ip administered for 9 days measured on day 14 (reference value: 3.53 +/- 0.85 mL); type: functional, Ehrlich; settings: route intraperitoneal

## Cc1noc2cc3c(nc12)[nH]c1ccc(Br)cc13
[1]
  IC50: 63.2 µg/mL (≈ 209 µM)
[2]
  IC50: 61.1 µg/mL (≈ 202 µM)
[3]
  IC50: 60.4 µg/mL (≈ 200 µM)

## COc1ccc2[nH]c3nc4c(C)noc4cc3c2c1
[1]
  IC50: 45.2 µg/mL (≈ 178 µM)
[2]
  IC50: 48.3 µg/mL (≈ 191 µM)
[3]
  IC50: 46.5 µg/mL (≈ 184 µM)

## Cc1noc2cc3c(nc12)[nH]c1c(C)cccc13
[1]
  IC50: 20.4 µg/mL (≈ 86.2 µM)
[4]
  Activity: 0.86 mL
[5]
  Activity: 2.97 ×10⁷ /ml
[6]
  Activity: 36.36%
[7]
  Activity: Active
[8]
  Activity: 1.36 mL
[9]
  Activity: 75%
[10]
  Activity: 106.3 IU/L
[11]
  Activity: 6.43 mg/dL
[12]
  Activity: 4.74 ×10⁷ /ml
[13]
  Activity: 3.34 million/mm3
[14]
  Activity: 41.06 IU/L
[15]
  Activity: 4.14 million/mm3
[16]
  Activity: 4.2 ×10⁷ /ml
[17]
  Activity: 101.06 IU/L
[18]
  Activity: 8.88 g%
[19]
  Activity: 55.1 IU/L
[20]
  Activity: 15.25 ×10³ /mm3
[21]
  Activity: 9.76 g
[2]
  IC50: 23.6 µg/mL (≈ 99.6 µM)
[22]
  Activity: 4.77 mg/dL
[3]
  IC50: 22.5 µg/mL (≈ 94.9 µM)
[23]
  Activity: 7.09 g%
[24]
  Activity: 17.65 ×10³ /mm3
[25]
  Activity: 1.4 mL
[26]
  Activity: 2.31 ×10⁷ /ml
[27]
  Activity: 5.93 g
[28]
  Activity: 2.13 mL

## Cc1noc2cc3c(nc12)[nH]c1ccc(F)cc13
[1]
  IC50: 52.4 µg/mL (≈ 217 µM)
[2]
  IC50: 50.5 µg/mL (≈ 209 µM)
[3]
  IC50: 51.3 µg/mL (≈ 213 µM)

## Cc1noc2cc3c(nc12)[nH]c1c(Cl)cccc13
[1]
  IC50: 52.3 µg/mL (≈ 203 µM)
[2]
  IC50: 55.6 µg/mL (≈ 216 µM)
[3]
  IC50: 54.5 µg/mL (≈ 212 µM)

## Cc1noc2cc3c(nc12)[nH]c1ccccc13
[1]
  IC50: 49.2 µg/mL (≈ 221 µM)
[2]
  IC50: 54.5 µg/mL (≈ 244 µM)
[3]
  IC50: 53.4 µg/mL (≈ 239 µM)

## Cc1noc2cc3c(nc12)[nH]c1ccc(Cl)cc13
[1]
  IC50: 36.4 µg/mL (≈ 141 µM)
[2]
  IC50: 49.3 µg/mL (≈ 191 µM)
[3]
  IC50: 49.1 µg/mL (≈ 190 µM)

## Cc1ccc2[nH]c3nc4c(C)noc4cc3c2c1
[1]
  IC50: 16.7 µg/mL (≈ 70.3 µM)
[4]
  Activity: 1.33 mL
[5]
  Activity: 5.2 ×10⁷ /ml
[6]
  Activity: 11.08%
[7]
  Activity: Active
[8]
  Activity: 1.8 mL
[9]
  Activity: 44.4%
[10]
  Activity: 106.1 IU/L
[11]
  Activity: 7.18 mg/dL
[12]
  Activity: 6.43 ×10⁷ /ml
[13]
  Activity: 2.93 million/mm3
[14]
  Activity: 47.46 IU/L
[15]
  Activity: 3.66 million/mm3
[16]
  Activity: 2.07 ×10⁷ /ml
[17]
  Activity: 98.6 IU/L
[18]
  Activity: 7.3 g%
[19]
  Activity: 54 IU/L
[20]
  Activity: 16.58 ×10³ /mm3
[21]
  Activity: 11.23 g
[2]
  IC50: 19.7 µg/mL (≈ 83.1 µM)
[22]
  Activity: 6.63 mg/dL
[3]
  IC50: 18.8 µg/mL (≈ 79.3 µM)
[23]
  Activity: 6.26 g%
[24]
  Activity: 19.19 ×10³ /mm3
[25]
  Activity: 1.63 mL
[26]
  Activity: 1.62 ×10⁷ /ml
[27]
  Activity: 8.36 g
[28]
  Activity: 2.43 mL
